Results on 11 compounds are retold here after publication PMC9014295 (Frontiers in Pharmacology, 2022).

“Also recorded” adds a separate entry of the source.

Series [1] concerns zebrafish liver, transgenic Tg (fabp10: dsRed) zebrafish larvae. The experiment in a line: Visual assessment of liver toxicity in zebrafish. The class given is in vivo, Danio rerio. The settings on record: exposure 3 dpf for 72 h, imaged at 6 dpf. The protocol: Wild-type AB strain zebrafish (Danio rerio) and transgenic Tg (fabp10: dsRed) zebrafish in this study were reared in a standard laboratory environment with a 14-h light/10-h dark cycle at 28 ± 1°C ([Chen et al., 2019]). As previously described ([Zhang et al., 2020]), 3 days post-fertilization (3 dpf), zebrafish larvae were exposed to compound solutions at different concentrations for 72 h. For visual assessment of liver toxicity in zebrafish, the tested zebrafish larvae were imaged by using a fluorescence microscope to observe the liver phenotype of zebrafish larvae, 20 larvae per group.

The subject of series [2] is human L02 cells. The series can be described thus: Cell viability of L02 cells by CCK-8 assay. The class given is cell-based. The settings on record: 24 h, different concentrations. The protocol: As previously described by [Zhang et al. (2020]), the human L02 cells were incubated with each macrolide compounds at different concentrations for 24 h. For cell viability, Cell Counting Kit-8 (CCK-8; Dojindo, CK04) was used by following the manufacturer’s protocol and the absorbance of each well was measured at 450 nm using a microplate reader. For cell toxicity, the level of lactate dehydrogenase (LDH) release was determined by LDH activity assay kits (Dojindo, CK12) according to the manufacturer’s specification, and the absorbance at 490 nm in each well was measured by a microplate reader.
(In general: Tetrazolium assays rely on reduction of a dye to a coloured formazan, in cell work by metabolically active cells.)

The subject of series [3] is c-fos gene expression in L02 cells. The experiment in a line: qRT-PCR of c-fos gene expression in L02 cells. The class given is cell-based, human. The settings on record: β-actin reference. On the procedure:
(§1) As previously described by [Zhang et al. (2020]), the treated zebrafish larvae liver and human L02 cells were collected for the qRT-PCR analysis. Total RNA were extracted from L02 cells and the dissected liver of larvae by using TRIzol reagent (Sigma–Aldrich, Saint Louis, MO, United States) and synthesized cDNA using M-MLV reverse transcriptase (Promega, M1708). The reaction of qRT-PCR was performed by LightCycler480. The relative mRNA levels were calculated with β-actin as the reference gene using the comparative […] quantization method. The specific primers (5′-3′) for amplification in zebrafish are as follows: fosab (F: TTACCAGCCTTAACGCCGAC, R: TGGACCATCCACTGCAAGTC), β-actin (F: CCGTGACATCAAGGAGAAG, R: ATACCGCAAGATTCCATACC). The primer sequences (5′-3′) for qRT-PCR in L02 cells are as follows: c-fos (F: TACTACCACTCACCCGCAGA, R: GGCCTCCTGTCATGGTCTTC), β-actin (F: CACCATTGGCAATGAGCGGTTC, R: AGGTCTTTGCGGATGTCCACGT).
In general terms: Quantitative PCR measures a nucleic acid by following its amplification.

The subject of series [4] is zebrafish fosab gene. The experiment in a line: RNA-seq analysis of zebrafish larvae liver (fosab). The settings on record: 2 mM; for Fold change of fosab gene (RNA-seq): exposed 3 dpf, collected 6 dpf. The class given is in vivo, Danio rerio. The protocol: As previously described ([Han et al., 2018a]), the process of ribonucleic acid sequencing (RNA-seq) analysis was carried out by CapitalBio Corporation (Beijing, China). […] Cytoscape software was employed to map the drug–pathway network.

Series [5] deals with fosab gene expression in zebrafish liver. The series can be described thus: qRT-PCR of fosab gene expression in zebrafish liver. The class given is in vivo, Danio rerio. The following applies: β-actin reference. On the procedure:
as §1

The conditions of series [6]: cited from earlier work; for Hepatotoxicity compared with erythromycin: ref Björnsson, 2017.
Series [7] relates to human L02 cells. The series can be described thus: LDH release assay in L02 cells. The class given is cell-based. The settings on record: 24 h, different concentrations. On the technique in general: LDH in the medium is a marker of cell lysis.
Description: As previously described by [Zhang et al. (2020]), the human L02 cells were incubated with each macrolide compounds at different concentrations for 24 h. […] For cell toxicity, the level of lactate dehydrogenase (LDH) release was determined by LDH activity assay kits (Dojindo, CK12) according to the manufacturer’s specification, and the absorbance at 490 nm in each well was measured by a microplate reader.

As for `CCC1OC(=O)C(C)C(OC2CC(C)(OC)C(O)C(C)O2)C(C)C(OC2OC(C)CC(N(C)C=O)C2O)C(C)(O)CC(C)CN(C)C(C)C(O)C1(C)O` (stereo not drawn) [Impurity F], the “Liver phenotype of zebrafish larvae” value in series [1] (0.5 mm) and in series [1] (1 mm) was “nearly non-toxic to zebrafish liver” in each case. The “Cytotoxicity / cell viability (CCK-8)” value in series [2] is on record as “less cytotoxicity”. In addition, the “c-fos mRNA level (qRT-PCR)” value in series [3] is “did not affect”. The “Effect on fosab mRNA level (RNA-seq, GO enrichment analysis)” value (“Effect on fosab mRNA level” for short) in series [4] was “no significant effect”.

For the compound `CCC1OC(=O)C(C)C(OC2CC(C)(OC)C(O)C(C)O2)C(C)C(OC2OC(C)CC([N+](C)(C)[O-])C2O)C(C)(O)CC(C)CN(C)C(C)C(O)C1(C)O` (stereo not drawn) [Impurity L], the “Liver phenotype of zebrafish larvae” value in series [1] (0.1 mM) was “hepatomegaly and caused the liver lost transparency with a brown coloration”; in series [1] (0.5 mm), “liver tissue became black”. The “c-fos mRNA level (qRT-PCR)” value in series [3] is on record as “significantly upregulated; also recorded: greatest effect”. Moreover, the “fosab mRNA level (qRT-PCR)” value in series [5] is listed as “greatest effect”. The “Effect on fosab mRNA level” value in series [4] is listed as “upregulated significantly”. Moreover, in series [4], the “Fold change of fosab gene (RNA-seq)” value was found to be 4.10.

With `CC[C@H]1OC(=O)[C@H](C)[C@@H](O[C@H]2C[C@@](C)(OC)[C@@H](O)[C@H](C)O2)[C@H](C)[C@@H](O[C@@H]2O[C@H](C)C[C@H](N(C)C)[C@H]2O)[C@](C)(OC)C[C@@H](C)C(=O)[C@H](C)[C@@H](O)[C@]1(C)O` [Clarithromycin], in series [6], the “Hepatotoxicity compared with erythromycin” value is on record as “less hepatotoxicity than erythromycin”.

For the compound `CC[C@H]1OC(=O)[C@H](C)[C@@H](O[C@H]2C[C@@](C)(OC)[C@@H](O)[C@H](C)O2)[C@H](C)[C@@H](O[C@@H]2O[C@H](C)C[C@H](N(C)C)[C@H]2O)[C@](C)(O)C[C@@H](C)/C(=N\OCOCCOC)[C@H](C)[C@@H](O)[C@]1(C)O` [Roxithromycin], in series [6], the “Hepatotoxicity compared with erythromycin” value is “less hepatotoxicity than erythromycin”.

`CC[C@H]1OC(=O)[C@H](C)[C@@H](O[C@H]2C[C@@](C)(OC)[C@@H](O)[C@H](C)O2)[C@H](C)[C@@H](O[C@@H]2O[C@H](C)C[C@H](N(C)C)[C@H]2O)[C@](C)(O)C[C@@H](C)CN(C)[C@H](C)[C@@H](O)[C@]1(C)O` [Azithromycin]: the “Liver phenotype of zebrafish larvae” value in series [1] (0.1 mM) is “no toxicity to zebrafish liver”; in series [1] (0.5 mm) it was “hepatomegaly”; in series [1] (1 mm), “blackened liver tissue”. For the same compound, the “Hepatotoxicity compared with erythromycin” value in series [6] is “higher hepatotoxicity than erythromycin”.

For the compound `CC[C@H]1OC(=O)[C@H](C)C(=O)[C@H](C)[C@@H](O[C@@H]2O[C@H](C)C[C@H](N(C)C)[C@H]2O)[C@](C)(OC)C[C@@H](C)C(=O)[C@H](C)[C@H]2N(CCCCn3cnc(-c4cccnc4)c3)C(=O)O[C@]12C` [Telithromycin], the “Liver phenotype of zebrafish larvae” value in series [1] (0.1 mM) was “hepatomegaly”; in series [1] (0.5 mm), “a dark coloration and amorphous liver”. Besides, in series [2], the “Cytotoxicity / cell viability (CCK-8)” value is listed as “higher cytotoxicity than azithromycin”. Also, in series [7], the “Cytotoxicity (LDH release)” value is recorded as “higher cytotoxicity than azithromycin”. Also, the “c-fos mRNA level (qRT-PCR)” value in series [3] is given as “significantly elevated”. In series [5], the “fosab mRNA level (qRT-PCR)” value is listed as “significantly elevated”. Moreover, the “Liver injury in clinical use” value in series [6] (ref Author Anonymous, 2012) is listed as “pulled from the market due to severe acute liver injury”.

Regarding `CCC1OC(=O)C(C)C(OC2CC(C)(OC)C(O)C(C)O2)C(C)C(OC2OC(C)CC(N(C)C)C2O)C2(C)CC(C)C(=NC(C)C(O)C1(C)O)O2` (stereo not drawn) [Impurity Q], the “c-fos mRNA level (qRT-PCR)” value in series [3] was “significantly upregulated”. For the same compound, in series [4], the “Effect on fosab mRNA level” value was “upregulated significantly” and the “Fold change of fosab gene (RNA-seq)” value came out at 3.07.

Take `CCC1OC(=O)C(C)C(OC2CC(C)(OC)C(O)C(C)O2)C(C)C(OC2OC(C)CC(N(C)C)C2O)C(C)(O)CC(C)C2=NC(C)C(O2)C1(C)O` (stereo not drawn) [Impurity R]: the “c-fos mRNA level (qRT-PCR)” value in series [3] is reported as “significantly upregulated; also recorded: moderately lower than azithromycin”. In addition, in series [4], the “Effect on fosab mRNA level” value is “upregulated significantly” and the “Fold change of fosab gene (RNA-seq)” value was 2.18.

Regarding `CCC1OC(=O)C(C)C(O)C(C)C(OC2OC(C)CC(N(C)C)C2O)C(C)(O)CC(C)CN(C)C(C)C(O)C1(C)O` (stereo not drawn) [Impurity J], the “c-fos mRNA level (qRT-PCR)” value in series [3] is on record as “significantly upregulated”. In series [4], the “Effect on fosab mRNA level” value was “upregulated significantly” and the “Fold change of fosab gene (RNA-seq)” value came to 2.92.

As to `CCC1OC(=O)C(C)C(OC2CC(C)(OC)C(O)C(C)O2)C(C)C(OC2OC(C)CC(NC)C2O)C(C)(O)CC(C)CN(C)C(C)C(O)C1(C)O` (stereo not drawn) [Impurity I], the “c-fos mRNA level (qRT-PCR)” value in series [3] is on record as “significantly upregulated”. In addition, in series [4], the “Effect on fosab mRNA level” value is recorded as “upregulated significantly” and the “Fold change of fosab gene (RNA-seq)” value is recorded as 2.14.

As for `CCC1OC(=O)C(C)C(OC2CC(C)(OC)C(O)C(C)O2)C(C)C(OC2OC(C)CC(N(C)C)C2O)C(C)(O)CC(C)C(=NO)C(C)C(O)C1(C)O` (stereo not drawn) [Impurity S], the “Cytotoxicity / cell viability (CCK-8)” value in series [2] is reported as “less cytotoxicity”. In series [3], the “c-fos mRNA level (qRT-PCR)” value was “did not affect”. For the same compound, the “Effect on fosab mRNA level” value in series [4] is on record as “no significant effect”.
